By IC50 is commonly meant the concentration that inhibits the measured activity by half. High values mean lower potency, low ones higher potency.

This note sets out measurements from the Kinase Knowledgebase extract (Sharma et al. 2016).

A value given as a limit tells only on which side of the number the result lay.

For this assay, the target named is MAPK14 (human) (UniProt Q16539). The experiment in a line: Inhibition of MAPK14 Kinase Activity.
Chain of MAPK14 (human) (Q16539 whole entry, looked up): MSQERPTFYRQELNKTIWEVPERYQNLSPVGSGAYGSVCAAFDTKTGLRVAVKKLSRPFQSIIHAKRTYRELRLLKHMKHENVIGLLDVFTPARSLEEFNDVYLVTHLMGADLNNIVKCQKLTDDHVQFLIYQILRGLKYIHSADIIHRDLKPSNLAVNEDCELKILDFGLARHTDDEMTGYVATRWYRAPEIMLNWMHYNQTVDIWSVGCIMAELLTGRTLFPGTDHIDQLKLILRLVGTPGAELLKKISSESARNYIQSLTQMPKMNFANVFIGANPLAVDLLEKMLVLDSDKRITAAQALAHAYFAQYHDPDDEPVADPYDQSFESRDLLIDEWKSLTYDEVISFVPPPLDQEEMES
The compound `Cc1cccc(C(=O)c2c(NC(=O)N3CCN(C)CC3)sc3c2ccc(=O)n3-c2ccccc2)c1` yielded an IC50 of less than 2 µM.

`O=C(c1ccccc1)c1c(NC(=O)[C@@H]2CCCN2)sc2c1ccc(=O)n2-c1ccccc1` registered an IC50 of less than 2 µM.

The compound `O=C(c1ccccc1)c1c(NCCN2CCCC2)sc2c1ccc(=O)n2-c1ccccc1` registered an IC50 of less than 2 µM.

Compound `Cc1cc(C(=O)c2c(NC(=O)C3CCNCC3)sc3c2ccc(=O)n3-c2ccccc2)ccc1F` yielded an IC50 of less than 2 µM.

For the compound `Cc1cccc(C(=O)c2c(NC3CCN(C(C)C)CC3)sc3c2ccc(=O)n3-c2ccccc2)c1`, the IC50 was less than 2 µM.

For `CN1CCC[C@@H]1C(=O)Nc1sc2c(ccc(=O)n2-c2ccccc2)c1C(=O)c1ccccc1`, the IC50 was less than 2 µM.

`Cc1cccc(C(=O)c2c(N[C@H]3CCN(C)C3)sc3c2ccc(=O)n3-c2ccccc2)c1` returned an IC50 of less than 2 µM.

Turning to `CN(C)CC(C)(C)CNc1sc2c(ccc(=O)n2-c2ccccc2)c1C(=O)c1ccccc1`, the IC50 was less than 2 µM.

Consider `O=C(c1ccccc1)c1c([N+](=O)[O-])sc2c1ccc(=O)n2-c1ccccc1`, for which the IC50 was less than 2 µM.

`Cc1cc(C(=O)c2c(N)sc3c2ccc(=O)n3CC2CC2)ccc1F` yielded an IC50 of less than 2 µM.

Take `Cc1cccc(C(=O)c2c(NC3CNC3)sc3c2ccc(=O)n3-c2ccccc2)c1`: the IC50 is less than 2 µM.

As for `Nc1sc2c(ccc(=O)n2-c2ccc(F)cc2)c1C(=O)c1ccccc1`, the IC50 was less than 2 µM.

On to `Cc1cccc(C(=O)c2csc3c2ccc(=O)n3-c2ccccc2)c1`, for which the IC50 is less than 2 µM.

With `Nc1sc2c(ccc(=O)n2-c2ccccc2)c1C(=O)c1cccc(OC(F)F)c1`, the IC50 is less than 2 µM.

Take `Cc1cccc(C(=O)c2c(NC3CN(C)C3)sc3c2ccc(=O)n3-c2ccccc2)c1`: the IC50 is less than 2 µM.

In the case of `CC(=O)Nc1sc2c(ccc(=O)n2-c2ccccc2)c1C(=O)c1ccccc1F`, the IC50 was less than 2 µM.

In the case of `O=C(c1ccccc1)c1c(NC(=O)N2CC[C@@H](O)C2)sc2c1ccc(=O)n2-c1ccccc1`, the IC50 is less than 2 µM.

`C[C@@H](Nc1sc2c(ccc(=O)n2-c2ccccc2)c1C(=O)c1ccccc1)C(N)=O` yielded an IC50 of less than 2 µM.

`Cc1cc(C(=O)c2c(N)sc3c2ccc(=O)n3-c2ccc(F)cc2)ccc1F` gave an IC50 of less than 2 µM.

For the compound `CN(C)C(=O)Nc1sc2c(ccc(=O)n2-c2ccccc2)c1C(=O)c1ccccc1`, the IC50 is less than 2 µM.

As for `CN(C)C1CN(c2sc3c(ccc(=O)n3-c3ccccc3)c2C(=O)c2ccccc2)C1`, the IC50 is less than 2 µM.

`O=C(c1ccccc1)c1c(N[C@@H]2CCNC2)sc2c1ccc(=O)n2-c1ccccc1`: the IC50 is less than 2 µM.

For `CC(C)(CO)NC(=O)Nc1sc2c(ccc(=O)n2-c2ccccc2)c1C(=O)c1ccccc1`, the IC50 is less than 2 µM.

On to `COc1ccccc1C(=O)c1c(NC(C)=O)sc2c1ccc(=O)n2-c1ccccc1`, for which the concentration for half-maximal inhibition (IC50) is less than 2 µM.

`CC(=O)Nc1sc2c(ccc(=O)n2-c2ccccc2)c1C(=O)c1cccc(C)n1` came in with an IC50 of less than 2 µM.

As to `CC(C)(CO)NC(=O)Nc1sc2c(ccc(=O)n2-c2ccccc2Cl)c1C(=O)c1ccccc1`, the IC50 was less than 2 µM.

As for `Nc1sc2c(ccc(=O)n2-c2ccccc2)c1C(=O)c1ccccc1OC(F)F`, the IC50 is less than 2 µM.

The compound `Cc1cc(C(=O)c2c(NC(=O)C3CCN(C)CC3)sc3c2ccc(=O)n3-c2ccccc2)ccc1F` showed an IC50 of less than 2 µM.

Regarding `N#Cc1ccccc1C(=O)c1c(N)sc2c1ccc(=O)n2-c1ccccc1`, the IC50 is less than 2 µM.

For `NC(=O)CNc1sc2c(ccc(=O)n2-c2ccccc2)c1C(=O)c1ccccc1`, the IC50 was less than 2 µM.

Take `Cc1ccccc1C(=O)c1c(N)sc2c1ccc(=O)n2-c1ccccc1`: the IC50 is less than 2 µM.

Compound `CN(C)c1ccc(-n2c(=O)ccc3c(C(=O)c4ccccc4)c(N)sc32)cn1` showed an IC50 of less than 2 µM.

For the compound `Cc1cccc(C(=O)c2c(NC(=O)N(C)C)sc3c2ccc(=O)n3-c2ccccc2)c1`, the IC50 was less than 2 µM.

Take `NC(=O)c1sc2c(ccc(=O)n2-c2ccccc2)c1C(=O)c1ccc(F)c(Cl)c1`: the IC50 is less than 2 µM.

`Nc1sc2c(ccc(=O)n2-c2ccccc2)c1C(=O)c1cccc(F)c1` gave an IC50 of less than 2 µM.

As to `Cc1cc(C(=O)c2c(N)sc3c2ccc(=O)n3-c2ccccc2Cl)ccc1F`, the IC50 was less than 2 µM.

Compound `CCN1CC(Nc2sc3c(ccc(=O)n3-c3ccccc3)c2C(=O)c2ccccc2)C1` came in with an IC50 of less than 2 µM.

With `CN1CCC[C@H](Nc2sc3c(ccc(=O)n3-c3ccccc3)c2C(=O)c2ccccc2)C1`, the IC50 was less than 2 µM.

With `CN(C)[C@H]1CCN(C(=O)Nc2sc3c(ccc(=O)n3-c3ccccc3)c2C(=O)c2ccccc2)C1`, the IC50 was less than 2 µM.

`Cc1ccc(-n2c(=O)ccc3c(C(=O)c4ccccc4)c(NC4CN(C)C4)sc32)cc1` yielded an IC50 of less than 2 µM.

In turn, `CC(=O)Nc1sc2c(ccc(=O)n2-c2ccccc2F)c1C(=O)c1ccc(F)c(C)c1` yielded an IC50 of less than 2 µM.

The compound `Cc1cc(C(=O)c2c(N[C@H]3CCNC3)sc3c2ccc(=O)n3-c2ccccc2)ccc1F` came in with an IC50 of less than 2 µM.

In the case of `CC(=O)Nc1sc2c(ccc(=O)n2-c2ccccc2)c1C(=O)c1cccc(Cl)c1`, the IC50 is less than 2 µM.

For `Cc1cc(C(=O)c2c(NC3CN(C)C3)sc3c2ccc(=O)n3CC2CC2)ccc1F`, the IC50 was less than 2 µM.

`N[C@@H]1CCN(C(=O)Nc2sc3c(ccc(=O)n3-c3ccccc3)c2C(=O)c2ccccc2)C1` came in with an IC50 of less than 2 µM.

For the compound `CN1CCC(Nc2sc3c(ccc(=O)n3-c3ccccc3)c2C(=O)c2ccc(F)c(Cl)c2)CC1`, the IC50 was less than 2 µM.

In turn, `CN(C)[C@H]1CCN(c2sc3c(ccc(=O)n3-c3ccccc3)c2C(=O)c2ccccc2)C1` gave an IC50 of less than 2 µM.

Consider `CN1CCC[C@H]1C(=O)Nc1sc2c(ccc(=O)n2-c2ccccc2)c1C(=O)c1ccccc1`, for which the IC50 was less than 2 µM.

For `Cc1cccc(C(=O)c2c(NC(N)=O)sc3c2ccc(=O)n3-c2ccccc2)c1`, the IC50 is less than 2 µM.

`Cc1ccc(-n2c(=O)ccc3c(C(=O)c4ccc(F)c(C)c4)c(N)sc32)cc1` registered a half-maximal inhibitory concentration (IC50) of less than 2 µM.

`CCN1CC[C@@H](NC(=O)Nc2sc3c(ccc(=O)n3-c3ccccc3)c2C(=O)c2ccc(F)c(C)c2)C1` registered an IC50 of less than 2 µM.

In the case of `Cc1cc(C(=O)c2c(NC3CCNCC3)sc3c2ccc(=O)n3-c2ccccc2)ccc1F`, the IC50 was less than 2 µM.

`CC(C)(CO)NC(=O)c1sc2c(ccc(=O)n2-c2ccccc2)c1C(=O)c1ccccc1`: the IC50 was less than 2 µM.

In turn, `O=C(c1ccccc1)c1csc2c1ccc(=O)n2-c1ccccc1` registered an IC50 of less than 2 µM.

For the compound `Nc1sc2c(ccc(=O)n2-c2ccccc2)c1C(=O)c1ccccc1OC(F)(F)F`, the IC50 was less than 2 µM.

`CCN1CCC(Nc2sc3c(ccc(=O)n3-c3ccccc3)c2C(=O)c2ccccc2)CC1` displayed an IC50 of less than 2 µM.

On to `Nc1sc2c(ccc(=O)n2-c2ccccc2)c1C(=O)c1ccccc1`, for which the IC50 is less than 2 µM.

For the compound `CCN1CCC(Nc2sc3c(ccc(=O)n3-c3ccccc3)c2C(=O)c2cccc(C)c2)CC1`, the IC50 was less than 2 µM.

As for `O=C(c1ccccc1)c1c(NC2CCCNC2)sc2c1ccc(=O)n2-c1ccccc1` (configuration not stated), the IC50 is less than 2 µM.

In turn, `NC1CCN(c2sc3c(ccc(=O)n3-c3ccccc3)c2C(=O)c2ccccc2)CC1` gave an IC50 of less than 2 µM.

`CC(=O)Nc1sc2c(ccc(=O)n2-c2ccccc2)c1C(=O)c1ccc(F)c(Cl)c1` came in with a 50% inhibitory concentration (IC50) of less than 2 µM.

The compound `CCOC(=O)c1sc2c(ccc(=O)n2CC2CC2)c1C(=O)c1ccccc1` returned an IC50 of less than 2 µM.

The compound `Cc1cccc(C(=O)c2c(C#N)sc3c2ccc(=O)n3-c2ccccc2)c1` returned an IC50 of less than 2 µM.

For the compound `Cc1cccc(C(=O)c2c(N)sc3c2ccc(=O)n3-c2ccccc2)n1`, the IC50 is less than 2 µM.

As for `Cc1cc(C(=O)c2c(NC(=O)N3CC[C@H](N(C)C)C3)sc3c2ccc(=O)n3-c2ccccc2)ccc1F`, the IC50 was less than 2 µM.

Consider `CCN1CC(Nc2sc3c(ccc(=O)n3-c3ccccc3)c2C(=O)c2ccc(F)c(C)c2)C1`, for which the IC50 is less than 2 µM.

`O=C(c1ccccc1)c1c(N[C@@H]2CCCNC2)sc2c1ccc(=O)n2-c1ccccc1` had a 50% inhibitory concentration (IC50) of less than 2 µM.
